The text below walks through data of ChEMBL document CHEMBL1138453, “Synthesis and SAR of 1,2,3,4-tetrahydroisoquinolin-1-ones as novel G-protein-coupled receptor 40 (GPR40) antagonists” (Bioorg Med Chem Lett, 2009).

Series [1] has as its system Rattus norvegicus. In words: Clearance in iv dosed Sprague-Dawley rat. Conditions: in vivo. The format is ADME, organism-based.
Series [2] deals with Liver microsomes. In words: Metabolic stability in rat liver microsomes assessed as clearance. The class given is ADME, Microsome.
Series [3] has as its target Free fatty acid receptor 1 (Homo sapiens, UniProt O14842). Briefly: Antagonist activity at human GPR40 expressed HEK293 cells assessed as effect on intracellular calcium concentration by FLIPR assay. The class given is functional, cell-based. (In general: Calcium flux is commonly read through the fluorescence of an indicator in the cells.)
Series [4] concerns Rattus norvegicus. In words: Clearance in iv dosed bile duct cannulated rat. The following applies: in vivo. The format is ADME, organism-based.
Series [5] in a line: Drug level in bile of iv dosed bile duct cannulated rat. The class given is ADME, organism-based. Conditions: read-out: Drug uptake.
Series [6] has as its system Liver microsomes. Briefly: (§1) Metabolic stability in human liver microsomes assessed as clearance. The following applies: microsomes. The format is ADME, Microsome.
Another series relates to Canis familiaris. In words: Clearance in iv dosed dog. The class given is ADME, organism-based, Canis lupus familiaris. The following applies: in vivo.
The nature of series [7]: Metabolic stability in dog liver microsomes assessed as clearance. The class given is ADME, Canis lupus familiaris, Microsome. A general note: Microsomes from liver hold many membrane-bound enzymes, among them those of drug oxidation.
Series [8] is described as follows: Half life in iv dosed Sprague-Dawley rat. The format is ADME, organism-based. Conditions: in vivo.
A short description of series [9]: Permeability from basolateral to apical side of the human Caco-2 membrane. The format is ADME, cell-based. The following applies: read-out: permeability. In general terms: Caco-2 cells form a polarised layer with tight junctions and transporters.
Series [10] can be described thus: Volume of distribution in iv dosed Sprague-Dawley rat. The format is ADME, organism-based. The following applies: in vivo.
A short description of series [11]: Permeability from apical to basolateral side of the human Caco-2 membrane. The class given is ADME, cell-based. The following applies: read-out: permeability.
Series [12] can be described thus: as §1. The class given is ADME, Microsome. Conditions: liver microsomes.

Free fatty acid receptor 1, sequence (O14842 whole entry): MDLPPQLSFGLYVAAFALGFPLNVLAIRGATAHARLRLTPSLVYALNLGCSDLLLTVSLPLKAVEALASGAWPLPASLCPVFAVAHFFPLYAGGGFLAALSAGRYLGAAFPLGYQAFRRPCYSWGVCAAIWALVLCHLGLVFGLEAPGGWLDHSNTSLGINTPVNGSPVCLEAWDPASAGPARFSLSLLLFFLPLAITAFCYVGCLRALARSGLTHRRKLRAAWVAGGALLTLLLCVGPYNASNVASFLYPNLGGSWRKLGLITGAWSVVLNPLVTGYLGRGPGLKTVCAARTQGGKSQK

For orientation: IC50 means the concentration needed to halve the response being measured. For the molecule `CCCN1C(=O)c2ccccc2[C@@H](C(=O)O)[C@@H]1c1cc2ccccc2o1`, the figures for the clearance in the series on Rattus norvegicus [1] and with Liver microsomes [2] were 3 mL/min/kg and 18 µL/min/mg, respectively. Also, the IC50 in series [3] was 119 nM.

In the case of `CC[C@H](C)CN1C(=O)c2ccccc2[C@@H](C(=O)O)[C@@H]1c1ccc(Cl)c(Cl)c1`, the clearance in the series on Liver microsomes [2] was less than 14 µL/min/mg. Besides, the IC50 in series [3] worked out at 13 nM.

Consider `CCC(CC)CN1C(=O)c2ccccc2[C@@H](C(=O)O)[C@@H]1c1ccc(Cl)c(Cl)c1`, for which the clearance in the series on Liver microsomes [2] is 27 µL/min/mg. In addition, in [3], the IC50 is 10 nM.

For `CCCN1C(=O)c2ccccc2[C@@H](C(=O)O)[C@@H]1c1ccc(Cl)c(Cl)c1`, in the series with Liver microsomes [2], the clearance is less than 14 µL/min/mg. For the same molecule, the IC50 in [3] worked out at 89 nM.

As for `CCCN1C(=O)c2ccccc2[C@@H](C(=O)O)[C@@H]1c1cccc(Cl)c1`, the clearance in the series with Rattus norvegicus [1] was 2.96 mL/min/kg; in the series with Liver microsomes [2], less than 14 µL/min/mg. For the same molecule, the IC50 in series [3] came to 228 nM.

In turn, `CCCN1C(=O)c2ccccc2[C@@H](C(=O)O)[C@@H]1c1cnc(O[C@H]2CC[C@@H](C)CC2)nc1` came in with a clearance with Rattus norvegicus [4] of 136 mL/min/kg. The dose excreted in [5] came out at 69.9%.

For `CCCN1C(=O)c2ccccc2[C@@H](C(=O)O)[C@@H]1c1ccc(O[C@H]2CC[C@@H](C)CC2)cc1`, the figures for the clearance in the series on Liver microsomes [2], with Rattus norvegicus [4] and with Liver microsomes [6] were 274 µL/min/mg, 84.5 mL/min/kg and less than 12 µL/min/mg, respectively. Besides, the dose excreted in series [5] stood at 22.9%. Further, the half-inhibitory concentration (IC50) in [3] was 10 nM.

`CCN1C(=O)c2ccccc2[C@@H](C(=O)O)[C@@H]1c1ccc(Oc2ccccc2)cc1`: the clearance in the series on Liver microsomes [2] is 97 µL/min/mg; with Rattus norvegicus [4], 111 mL/min/kg; with Liver microsomes [6], less than 9 µL/min/mg. The dose excreted in series [5] was found to be 13.9%. Moreover, the 50% inhibitory concentration (IC50) in series [3] was found to be 12 nM.

For the molecule `CCCN1C(=O)c2ccccc2[C@@H](C(=O)O)[C@@H]1c1ccc(Oc2cc(C)cc(C)c2)cc1`, the values for the clearance in the series with Liver microsomes [2] and in the series on Liver microsomes [6] were 46 µL/min/mg and 21 µL/min/mg, respectively. The IC50 in series [3] was 2 nM.

With `CCCN1C(=O)c2ccccc2[C@@H](C(=O)O)[C@@H]1c1ccc(Oc2ccc(C)c(C)c2)cc1`, the clearance is less than 14 µL/min/mg with Liver microsomes [2] and less than 8 µL/min/mg with Liver microsomes [6]. Moreover, in [3], the IC50 was determined as 3 nM.

What is called microsomal CLint is a measure of how fast metabolising enzymes remove a compound, apart from limits set by blood flow. Consider `CCCN1C(=O)c2ccccc2[C@@H](C(=O)O)[C@@H]1c1ccc(Oc2cc(Cl)cc(Cl)c2)cc1`, for which the clearance with Rattus norvegicus [4] was determined as 32.7 mL/min/kg; with Canis familiaris, 7.4 mL/min/kg. Also, the dose excreted in [5] is 64.6%. For the same molecule, in series [7], the microsomal CLint came to 2.99 µL/min/mg.

`CN1C(=O)c2ccccc2[C@@H](C(=O)O)[C@@H]1c1ccc(Oc2ccccc2)cc1`: the clearance in the series on Liver microsomes [2] turned out to be 27 µL/min/mg. The IC50 in series [3] worked out at 156 nM.

As for `CCC(CC)CN1C(=O)c2ccccc2[C@@H](C(=O)O)[C@@H]1c1nc2ccccc2s1`, in the series on Liver microsomes [2], the clearance was less than 18 µL/min/mg. In series [3], the IC50 worked out at 10 nM.

As to `CCCN1C(=O)c2ccccc2[C@@H](C(=O)O)[C@@H]1c1ccc(OC)cc1`, the clearance with Liver microsomes [2] is less than 14 µL/min/mg; in the series on Liver microsomes [6], less than 8 µL/min/mg. For the same molecule, the IC50 in [3] came out at 2100 nM.

For orientation: half-life means the time in which the quantity being followed falls by half. Lower therefore signals rapid decline. As usually defined, the Vd is the apparent volume that relates the amount in the body to the concentration in plasma or blood. In series [8], `CC[C@H](C)CN1C(=O)c2ccccc2[C@@H](C(=O)O)[C@@H]1c1cc2ccccc2o1` showed a half-life of 5.4 h. Besides, the Papp B→A in series [9] came out at 18.7 ×10⁻⁶ cm/s. Further, the clearance in the series with Rattus norvegicus [1] was 4.3 mL/min/kg; with Liver microsomes [2], less than 14.1 µL/min/mg. In [10], this molecule came in with a Vd of 1.1 L/kg. The Papp A→B in [11] is 12 ×10⁻⁶ cm/s. Besides, in [3], the 50% inhibitory concentration (IC50) amounted to 20 nM. Moreover, the microsomal CLint in series [12] is less than 8 µL/min/mg.

In the case of `CCCN1C(=O)c2ccccc2[C@@H](C(=O)O)[C@@H]1c1ccc(OCc2ccccc2)cc1`, the clearance was 82.8 mL/min/kg in the series on Rattus norvegicus [1], less than 16 µL/min/mg with Liver microsomes [2] and less than 8 µL/min/mg in the series on Liver microsomes [6]. In addition, the IC50 in series [3] stood at 96 nM.

Regarding `CCCN1C(=O)c2ccccc2[C@@H](C(=O)O)[C@@H]1c1ccc(Oc2ccc(C(F)(F)F)cn2)cc1`, the clearance in the series with Liver microsomes [2] is less than 14 µL/min/mg; with Liver microsomes [6], less than 8 µL/min/mg. In addition, in [3], the IC50 stood at 29 nM.

For `O=C(O)[C@@H]1c2ccccc2C(=O)N(CC2CC2)[C@H]1c1ccc(Oc2ccccc2)cc1`, the clearance with Liver microsomes [2] was found to be 120 µL/min/mg. Also, in series [3], the IC50 was determined as 4 nM.
